Patent US20110295343A1, “NEAR-INFRARED ELECTROMAGNETIC MODIFICATION OF CELLULAR STEADY-STATE MEMBRANE POTENTIALS” (priority 2008, published 2011)
Several values for one entry are separate records, joined by “and”; a condition that tells them apart may be missing. Equal values may be shown once. Read-outs that look alike come from different tables or passages of the source.

Assays:
[1] = system: C. albicans; experiment: Colony counts of C. albicans plated with Lamisil or Sporanox after sub-lethal NIMELS laser (Example XIII); assay type: cell-based, Candida albicans; settings: for C. albicans Colony Counts, Control: no laser, group AF8, replicates 1-5; for C. albicans Colony Counts, Experimental: sub-lethal NIMELS laser (AF-8 dosimetry), replicates 1-5
Description: Similar cell culture and kinetic protocols were performed for all NIMELS irradiation with E. coli and C. albicans in vitro tests. […] A standardized suspension was aliquoted into selected wells in a 24-well tissue culture plate. Following laser treatments, 100 μL was removed from each well and serially diluted to 1:1000 resulting in a final dilution of 1:5×10^6 of initial culture. An aliquot of each final dilution were spread onto separate plates. The plates were then incubated at 37° C. for approximately 16-20 hours. Manual colony counts were performed and recorded.
The null hypothesis is μ1−μ2=0 and μ1−μ3=0 where: a) μ1 is sub-lethal dosimetry ftom the NIMEL laser system on C. albicans as a control and; b) μ2 is the same sub-lethal dosimetry from the NTMEL laser system on C. albicans with the addition of Sporanos at resistant MIC just below effectiveness level and; c) μ3 is the same sub-lethal dosimetry from the NIMEL laser system on C. albicans with the addition of Lamisil at resistant MIC just below effectiveness level.

[2] = system: S. aureus; settings: cited from earlier work

For `CN(C/C=C/C#CC(C)(C)C)Cc1cccc2ccccc12` [Lamisil, terbinafine], the “effect of sub-lethal NIMELS irradiation on antifungal action against C. albicans colonies” value ([1]; 0.5 ug/ml) was “potentiated by a sub-lethal dosimetry irradiation”, the “C. albicans Colony Counts, Control” value ([1]; Lamisil 0.5 ug/ml) was 290 and 335 and 334 and 280 and the “C. albicans Colony Counts, Experimental” value ([1]; Lamisil 0.5 ug/ml) was 101 and 70 and 90 and 78 and 74.
With `CCC(C)n1ncn(-c2ccc(N3CCN(c4ccc(OCC5COC(Cn6cncn6)(c6ccc(Cl)cc6Cl)O5)cc4)CC3)cc2)c1=O` (stereo not shown) [Sporanox, itraconazole] the “C. albicans Colony Counts, Control” value ([1]; Sporanox 0.5 ug/ml) was 360 and 332 and 320 and 311 and 295 and the “C. albicans Colony Counts, Experimental” value ([1]; Sporanox 0.5 ug/ml) was 110 and 86 and 91 and 80 and 107.
In the case of `CCCCCCCCCC(=O)N[C@@H](Cc1c[nH]c2ccccc12)C(=O)N[C@H](CC(N)=O)C(=O)N[C@@H](CC(=O)O)C(=O)N[C@@H]1C(=O)NCC(=O)N[C@@H](CCCN)C(=O)N[C@@H](CC(=O)O)C(=O)N[C@H](C)C(=O)N[C@@H](CC(=O)O)C(=O)NCC(=O)N[C@H](CO)C(=O)N[C@@H]([C@H](C)CC(=O)O)C(=O)N[C@@H](CC(=O)c2ccccc2N)C(=O)O[C@@H]1C` [daptomycin], the “daptomycin concentration to achieve a 3-log reduction” value ([2]; cell growth halted by erythromycin, within 2 h) is listed as 10 μg/ml and the “daptomycin concentration to achieve a 3-log reduction” value ([2]; used alone, stationary phase S. aureus, 10^10 CFU/ml) is listed as 32 μg/ml.
